The source of these data is ChEMBL document CHEMBL1135251, “Oxime derivatives of sordaricin as potent antifungal agents” (Bioorg Med Chem Lett, 2002).

Converted amounts (≈) assume the structure as drawn.

Series [1] is described as follows: Therapeutic index (CC50/MIC) was determined.
The next series has as its system HEp-2. Kind of series: Cytotoxicity was evaluated against Hep-2 cells in vitro. In kind it is functional. As to conditions: Homo sapiens.
In a further series the test system is Candida albicans. Kind of series: Minimum inhibitory concentration against Candida albicans. The series is classed as functional.
The test system of another series is Nakaseomyces glabratus. Briefly: Minimum inhibitory concentration against Candida glabrata. In kind it is functional.
The next series concerns Cryptococcus neoformans. Briefly: In vitro minimum inhibitory concentration against […].

In the case of `CC(C)CO/N=C/C12C[C@@H]3[C@H](C)CC[C@H]3C3(C=O)CC1C=C(C(C)C)[C@@]23C(=O)O`, the Therapeutic index in series [1] was found to be 70. Half-maximal cytotoxicity in the series with HEp-2 (CC50) was put at 35 µg/mL (≈ 87.2 µM). In addition, the MIC in the series with Candida albicans and against Nakaseomyces glabratus was 0.5 µg/mL (≈ 1.25 µM) throughout.

Consider `CC(C)C1=CC2CC3(C=O)[C@@H]4CC[C@@H](C)[C@H]4CC2(C2=NOC(CC(C)(C)C)C2)[C@]13C(=O)O` (stereo not given in full), for which the MIC against Candida albicans is 2 µg/mL (≈ 4.53 µM); against Nakaseomyces glabratus, 1 µg/mL (≈ 2.26 µM).

Take `CC(C)C1=CC2CC3(C=O)[C@@H]4CC[C@@H](C)[C@H]4CC2(/C=N/OCc2ccccc2Cl)[C@]13C(=O)O`: the Therapeutic index in series [1] was 0.7. Moreover, in the series with HEp-2, the midpoint of cytotoxicity, the CC50, lay at 1.4 µg/mL (≈ 2.98 µM). The minimum inhibitory concentration (MIC) came out at 2 µg/mL (≈ 4.26 µM) in the series on Candida albicans and 8 µg/mL (≈ 17 µM) with Nakaseomyces glabratus.

Turning to `CCOC(=O)C1CC(C23C[C@@H]4[C@H](C)CC[C@H]4C4(C=O)CC2C=C(C(C)C)[C@@]34C(=O)O)=NO1` (stereo not given in full), the figures for the MIC in the series on Candida albicans and with Nakaseomyces glabratus were 8 µg/mL (≈ 18 µM) and 4 µg/mL (≈ 9.02 µM), respectively.

As to `CC(C)CCC1CC(C23C[C@@H]4[C@H](C)CC[C@H]4C4(C=O)CC2C=C(C(C)C)[C@@]34C(=O)O)=NO1` (stereo not given in full), the MIC in the series with Candida albicans worked out at 1 µg/mL (≈ 2.26 µM); with Nakaseomyces glabratus it was 4 µg/mL (≈ 9.06 µM).

In the case of `CC(C)C1=CC2CC3(C=O)[C@@H]4CC[C@@H](C)[C@H]4CC2(C2=NOC(C4CCCCC4)C2)[C@]13C(=O)O` (stereo not given in full), the minimum inhibitory concentration (MIC) against Candida albicans and in the series on Nakaseomyces glabratus was 2 µg/mL (≈ 4.41 µM) each time.

For the compound `Cc1noc(C)c1CO/N=C/C12C[C@@H]3[C@H](C)CC[C@H]3C3(C=O)CC1C=C(C(C)C)[C@@]23C(=O)O`, the MIC with Candida albicans was more than 128 µg/mL; against Nakaseomyces glabratus it was 128 µg/mL (≈ 282 µM).

`CC(C)C1=CC2CC3(C=O)[C@@H]4CC[C@@H](C)[C@H]4CC2(C2=NOC(CC#N)C2)[C@]13C(=O)O` (stereo not given in full): the minimal inhibitory concentration (MIC) in the series on Candida albicans and with Nakaseomyces glabratus was 128 µg/mL (≈ 312 µM) in each case.

With `Cc1ccccc1CO/N=C/C12C[C@@H]3[C@H](C)CC[C@H]3C3(C=O)CC1C=C(C(C)C)[C@@]23C(=O)O`, the MIC in the series with Candida albicans and in the series with Nakaseomyces glabratus was 16 µg/mL (≈ 35.6 µM) throughout.

`CCOCCO/N=C/C12C[C@@H]3[C@H](C)CC[C@H]3C3(C=O)CC1C=C(C(C)C)[C@@]23C(=O)O` displayed a Therapeutic index in series [1] of 1.4. The compound further gave a CC50 in the series with HEp-2 of 22 µg/mL (≈ 52.7 µM). For the same compound, the minimum inhibitory concentration (MIC) in the series with Candida albicans and in the series on Nakaseomyces glabratus was 16 µg/mL (≈ 38.3 µM) throughout.

Compound `CC(C)CCO/N=C/C12C[C@@H]3[C@H](C)CC[C@H]3C3(C=O)CC1C=C(C(C)C)[C@@]23C(=O)O` yielded a Therapeutic index in series [1] of 8. The compound further had a CC50 with HEp-2 of 4 µg/mL (≈ 9.63 µM). The MIC in the series on Candida albicans is 0.5 µg/mL (≈ 1.2 µM); against Nakaseomyces glabratus, 1 µg/mL (≈ 2.41 µM).

`COC1C(O)[C@H](O)[C@H](OC[C@@]23C[C@@H]4[C@H](C)CC[C@H]4[C@@]4(C=O)CC2C=C(C(C)C)[C@@]34C(=O)O)O[C@@H]1C` (single isomer, unassigned) [SORDARIN] showed a Therapeutic index in series [1] of 10. Moreover, the half-maximal cytotoxic concentration (CC50) in the series on HEp-2 is 167 µg/mL (≈ 339 µM). For the same compound, the MIC with Candida albicans was 16 µg/mL (≈ 32.5 µM); in the series on Nakaseomyces glabratus, more than 128 µg/mL.

With `CCCCCO/N=C/C12C[C@@H]3[C@H](C)CC[C@H]3C3(C=O)CC1C=C(C(C)C)[C@@]23C(=O)O`, the Therapeutic index in series [1] worked out at 92. Besides, the values for the MIC with Cryptococcus neoformans, in the series on Candida albicans and against Nakaseomyces glabratus were 64 µg/mL (≈ 154 µM), 0.06 µg/mL (≈ 0.144 µM) and 0.06 µg/mL (≈ 0.144 µM), respectively. Besides, half-maximal cytotoxicity with HEp-2 (CC50) was put at 5.5 µg/mL (≈ 13.2 µM).

Consider `CC(C)C1=CC2CC3(C=O)[C@@H]4CC[C@@H](C)[C@H]4CC2(/C=N/OC2CCCCO2)[C@]13C(=O)O` (stereo not given in full), for which the Therapeutic index in series [1] stood at 66. In the series on HEp-2, this compound returned a CC50 of 33 µg/mL (≈ 76.8 µM). Also, the minimum inhibitory concentration (MIC) with Candida albicans is 0.5 µg/mL (≈ 1.16 µM); with Nakaseomyces glabratus, 1 µg/mL (≈ 2.33 µM).

With `CC(C)C1=CC2CC3(C=O)[C@@H]4CC[C@@H](C)[C@H]4CC2(C2=NOC4CCCCC24)[C@]13C(=O)O` (stereo not given in full), the MIC was more than 128 µg/mL against Candida albicans and 1 µg/mL (≈ 2.35 µM) against Nakaseomyces glabratus.

In series [1], `CC(C)=CCO/N=C/C12C[C@@H]3[C@H](C)CC[C@H]3C3(C=O)CC1C=C(C(C)C)[C@@]23C(=O)O` returned a Therapeutic index of 4.5. In addition, the CC50 in the series with HEp-2 turned out to be 4.5 µg/mL (≈ 10.9 µM). Further, the minimum inhibitory concentration (MIC) against Candida albicans and against Nakaseomyces glabratus was 1 µg/mL (≈ 2.42 µM) in each case.

As for `CC#CCO/N=C/C12C[C@@H]3[C@H](C)CC[C@H]3C3(C=O)CC1C=C(C(C)C)[C@@]23C(=O)O`, in series [1], the Therapeutic index worked out at 2. The same compound had a CC50 in the series on HEp-2 of 16 µg/mL (≈ 40.3 µM). The MIC turned out to be 8 µg/mL (≈ 20.1 µM) against Candida albicans and 32 µg/mL (≈ 80.5 µM) in the series with Nakaseomyces glabratus.

`CC(C)C1=CC2CC3(C=O)[C@@H]4CC[C@@H](C)[C@H]4CC2(CO)[C@]13C(=O)O`: the minimal inhibitory concentration (MIC) with Candida albicans and in the series on Nakaseomyces glabratus was more than 128 µg/mL throughout.

As to `CC[C@@H](C)CO/N=C/C12C[C@@H]3[C@H](C)CC[C@H]3C3(C=O)CC1C=C(C(C)C)[C@@]23C(=O)O`, in series [1], the Therapeutic index was found to be 11. In the series on HEp-2, this compound displayed a half-maximal cytotoxic concentration (CC50) of 2.7 µg/mL (≈ 6.5 µM). The MIC in the series with Candida albicans came out at 0.25 µg/mL (≈ 0.602 µM); in the series with Nakaseomyces glabratus, 0.5 µg/mL (≈ 1.2 µM).

With `CCCCC1CC(C23C[C@@H]4[C@H](C)CC[C@H]4C4(C=O)CC2C=C(C(C)C)[C@@]34C(=O)O)=NO1` (stereo not given in full), the MIC against Candida albicans and against Nakaseomyces glabratus was 2 µg/mL (≈ 4.68 µM) throughout.

Take `CC(C)C1=CC2CC3(C=O)[C@@H]4CC[C@@H](C)[C@H]4CC2(c2cc(-c4ccccc4)on2)[C@]13C(=O)O`: the MIC against Candida albicans is 8 µg/mL (≈ 18 µM); against Nakaseomyces glabratus, 0.25 µg/mL (≈ 0.561 µM).

`CC(C)C1=CC2CC3(C=O)[C@@H]4CC[C@@H](C)[C@H]4CC2(/C=N/OCCCC(F)(F)F)[C@]13C(=O)O` yielded a Therapeutic index in series [1] of 1.9. Moreover, the midpoint of cytotoxicity with HEp-2, the CC50, lay at 1.9 µg/mL (≈ 4.17 µM). Besides, the minimal inhibitory concentration (MIC) against Candida albicans turned out to be 1 µg/mL (≈ 2.2 µM); in the series on Nakaseomyces glabratus, 4 µg/mL (≈ 8.78 µM).

In series [1], `CC(C)C1=CC2CC3(C=O)[C@@H]4CC[C@@H](C)[C@H]4CC2(/C=N/OCC2CCCCC2)[C@]13C(=O)O` showed a Therapeutic index of 2.4. Further, the CC50 in the series with HEp-2 is 0.6 µg/mL (≈ 1.36 µM). The minimal inhibitory concentration (MIC) with Candida albicans was 0.25 µg/mL (≈ 0.566 µM); in the series on Nakaseomyces glabratus, 1 µg/mL (≈ 2.26 µM).

For `CCCCOC1CC(C23C[C@@H]4[C@H](C)CC[C@H]4C4(C=O)CC2C=C(C(C)C)[C@@]34C(=O)O)=NO1` (stereo not given in full), the MIC in the series with Candida albicans worked out at 1 µg/mL (≈ 2.25 µM); in the series on Nakaseomyces glabratus, 8 µg/mL (≈ 18 µM).

`CC(C)C1=CC2CC3(C=O)[C@@H]4CC[C@@H](C)[C@H]4CC2(/C=N/OCC2CCCCO2)[C@]13C(=O)O` (stereo not given in full): the Therapeutic index in series [1] was determined as 4.5. The midpoint of cytotoxicity in the series with HEp-2, the CC50, lay at 9 µg/mL (≈ 20.3 µM). Further, the MIC against Candida albicans was 2 µg/mL (≈ 4.51 µM); against Nakaseomyces glabratus, 8 µg/mL (≈ 18 µM).

As to `CCC(C)(C)CC1CC(C23C[C@@H]4[C@H](C)CC[C@H]4C4(C=O)CC2C=C(C(C)C)[C@@]34C(=O)O)=NO1` (stereo not given in full), the MIC in the series with Candida albicans was determined as 4 µg/mL (≈ 8.78 µM); in the series on Nakaseomyces glabratus, 1 µg/mL (≈ 2.19 µM).

For the compound `CC(C)C1=CC2CC3(C=O)[C@@H]4CC[C@@H](C)[C@H]4CC2(C2=NOC4C2CCN4Cc2ccccc2)[C@]13C(=O)O` (stereo not given in full), the MIC against Candida albicans and in the series with Nakaseomyces glabratus was more than 128 µg/mL in each case.

For `CC(C)C1=CC2CC3(C=O)[C@@H]4CC[C@@H](C)[C@H]4CC2(C2=NOC(c4ccccc4)C2)[C@]13C(=O)O` (stereo not given in full), the MIC against Candida albicans turned out to be 16 µg/mL (≈ 35.7 µM); against Nakaseomyces glabratus, 2 µg/mL (≈ 4.47 µM).

With `CC(C)C1=CC2CC3(C=O)[C@@H]4CC[C@@H](C)[C@H]4CC2(C2=NOC(CN4CCOCC4)C2)[C@]13C(=O)O` (stereo not given in full), the MIC was 16 µg/mL (≈ 34 µM) against Candida albicans and more than 128 µg/mL against Nakaseomyces glabratus.

Turning to `CC(C)C1=CC2CC3(C=O)[C@@H]4CC[C@@H](C)[C@H]4CC2(c2cc(CO)on2)[C@]13C(=O)O`, the minimal inhibitory concentration (MIC) with Candida albicans and with Nakaseomyces glabratus was more than 128 µg/mL in each case.

Turning to `CC(C)C1=CC2CC3(C=O)[C@@H]4CC[C@@H](C)[C@H]4CC2(C2=NOC(CO)C2)[C@]13C(=O)O` (stereo not given in full), the minimum inhibitory concentration (MIC) against Candida albicans and in the series with Nakaseomyces glabratus was more than 128 µg/mL throughout.

As to `CC(C)C1=CC2CC3(C=O)[C@@H]4CC[C@@H](C)[C@H]4CC2(C2=NOC4OCCC24)[C@]13C(=O)O` (stereo not given in full), the minimal inhibitory concentration (MIC) against Candida albicans was more than 128 µg/mL; with Nakaseomyces glabratus, 8 µg/mL (≈ 19.3 µM).

For `COCCOCCO/N=C/C12C[C@@H]3[C@H](C)CC[C@H]3C3(C=O)CC1C=C(C(C)C)[C@@]23C(=O)O`, the Therapeutic index in series [1] was 5.7. This compound had a CC50 in the series on HEp-2 of 46 µg/mL (≈ 103 µM). Further, the figures for the MIC against Candida albicans and against Nakaseomyces glabratus were 8 µg/mL (≈ 17.9 µM) and 128 µg/mL (≈ 286 µM), respectively.
